Target: T1, MAT2A homodimer (Homo sapiens, UniProt P31153)
T1 construct: inferred from Ni sepharose purification and imidazole elution; made in house; host or cells: Sf9 insect cells, recombinant baculovirus (Bac to Bac, pFASTBAC1 vector)
Assay: Biochemical assay: inhibition of recombinant MAT2A homodimer (phosphate release, PiColorLock Gold)
Conditions: MAT2A IC50 score; read-out: Enzyme Inhibition
Description: Mat2A protein was expressed by recombinant baculovirus in SF9 infected cells using the Bac to Bac system cloned into the pFASTBAC1 vector (Invitrogen, Carlsbad, Calif.). Recombinant MAT2A was isolated from the cell lysate of 150 g of infected cells using HP Ni sepharose column chromatography. Recombinant MAT2A homodimer was eluted with 250 and 500 mM imidazole, and fractions containing MAT2A were identified by sodium dodecyl sulfate polyacrylamide gel electrophoresis and pooled.
For determination of the inhibitory potency of compounds against the MAT2A homodimer, protein was diluted to 4 μg/mL in assay buffer (50 mM Tris, pH 8.0, 50 mM KCl, 15 mM MgCl2, 0.3 mM EDTA, 0.005% [w/v] bovine serum albumin [BSA]). Test compound was prepared in 100% dimethyl sulfoxide (DMSO) at 50× the desired final concentration. A 1 μL volume of compound dilution was added to 40 μL of enzyme dilution and the mixture was allowed to equilibrate for 60 minutes at 25° C. The enzymatic assay was initiated by the addition of 10 μL of substrate mix (500 μM ATP, pH 7.0, 40 μM L-methionine in 1× assay buffer), and the mixture was incubated for a further 60 minutes at 25° C. The reaction was halted and the liberated phosphate released by the enzyme in stoichiometric amounts by the production of S-adenosyl methionine (SAM) was measured using the PiColorLock Gold kit (Innova Biosciences, UK). Absolute product amounts were determined by comparison to a standard curve of potassium phosphate buffer, pH 8.0.

T1 sequence (P31153 whole entry): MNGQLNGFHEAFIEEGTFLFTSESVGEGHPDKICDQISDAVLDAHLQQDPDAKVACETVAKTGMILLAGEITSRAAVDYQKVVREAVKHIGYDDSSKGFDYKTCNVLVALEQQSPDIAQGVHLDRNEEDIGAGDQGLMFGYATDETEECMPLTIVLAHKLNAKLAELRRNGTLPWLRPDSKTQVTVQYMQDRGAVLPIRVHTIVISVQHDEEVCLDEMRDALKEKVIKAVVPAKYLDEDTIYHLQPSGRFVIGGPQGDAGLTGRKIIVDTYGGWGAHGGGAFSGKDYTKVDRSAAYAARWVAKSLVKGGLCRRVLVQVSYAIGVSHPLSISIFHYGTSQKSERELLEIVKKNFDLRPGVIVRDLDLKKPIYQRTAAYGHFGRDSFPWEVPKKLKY

COc1ccc(-c2cc3cnc(NCC4CC4)nc3n(-c3ccccc3)c2=O)cc1 [Example 102]
IC50: 100 to 1000 nM

COc1ccc(-c2cc3cnc(NCC(F)(F)F)nc3n(-c3ccccc3)c2=O)cc1 [Example 103]
IC50: 100 to 1000 nM

COc1ccc(-c2cc3cnc(S(C)(=O)=O)nc3n(-c3ccccc3)c2=O)cc1 [Example 104]
IC50: 1000 to 10000 nM

COc1ccc(-c2cc3cnc(S(C)(=O)=O)nc3n(-c3ccc(O)cc3)c2=O)cc1 [Example 105]
IC50: 1000 to 10000 nM

COc1ccc(-c2cc3cnc(NCC(F)(F)F)nc3n(-c3ccncc3)c2=O)cc1 [Example 107]
IC50: 100 to 1000 nM

COc1ccc(-c2cc3cnc(SC)nc3n(-c3ccc(OC(F)(F)F)cc3)c2=O)cc1 [Example 108]
IC50: 1000 to 10000 nM

COc1ccc(-c2cc3cnc(NCC(F)(F)F)nc3n(-c3ccc(OC(F)(F)F)cc3)c2=O)cc1 [Example 109]
IC50: 100 to 1000 nM

COc1ccc(-c2cc3cnc(SC)nc3n(-c3ccc(Cl)cc3)c2=O)cc1 [Example 110]
IC50: 100 to 1000 nM

COc1ccc(-c2cc3cnc(SC)nc3n(-c3ccc(C(F)(F)F)cc3)c2=O)cc1 [Example 111]
IC50: 1000 to 10000 nM

COc1ccc(-c2cc3cnc(NCC(F)(F)F)nc3n(-c3ccc(C(F)(F)F)cc3)c2=O)cc1 [Example 112]
IC50: < 100 nM

COc1ccc(-c2cc3cnc(SC)nc3n(-c3ccc(OC)cc3)c2=O)cc1 [Example 113]
IC50: 100 to 1000 nM

COc1ccc(-n2c(=O)c(-c3ccc4ncccc4c3)cc3cnc(SC)nc32)cc1 [Example 114]
IC50: 100 to 1000 nM

COc1ccc(-c2cc3cnc(NCC(F)(F)F)nc3n(-c3ccc(C#N)cc3)c2=O)cc1 [Example 117]
IC50: 100 to 1000 nM

COc1ccc(-c2cc3cnc(NCC(F)(F)F)nc3n(-c3ccc4sccc4c3)c2=O)cc1 [Example 125, 8-(benzo[b]thiophen-5-yl)-6-(4-methoxyphenyl)-2-(2,2,2-trifluoroethylamino)pyrido[2,3-d]pyrimidin-7(8H)-one]
IC50: < 100 nM

COc1ccc(-c2cc3cnc(NCC(F)(F)F)nc3n(-c3ccc(Cl)cc3)c2=O)cc1 [Example 126]
IC50: < 100 nM

COc1ccc(-c2cc3cnc(NCC(F)(F)F)nc3n(-c3ccc4[nH]ccc4c3)c2=O)cc1 [Example 128]
IC50: 100 to 1000 nM

COc1ccc(-c2cc3ccc(NCC(F)(F)F)nc3n(-c3ccc(C4CC4)cc3)c2=O)cc1 [Example 132]
IC50: < 100 nM

COc1ccc(-c2cc3ccc(NCC(F)(F)F)nc3n(-c3ccc(Cl)cc3)c2=O)cc1 [Example 133]
IC50: < 100 nM

COc1ccc(-c2cc3ccc(NCC(F)(F)F)nc3n(-c3ccc(C4CC4)nc3)c2=O)cc1 [Example 134]
IC50: < 100 nM

CCOc1ccc2cc(-c3ccc(OC)cc3)c(=O)n(-c3ccc(C)nc3)c2n1 [Example 136, 7-ethoxy-3-(4-methoxyphenyl)-1-(6-methylpyridin-3-yl)-1,8-naphthyridin-2(1H)-one]
IC50: < 100 nM

CCOc1ccc2cc(-c3ccc4nn(C)cc4c3)c(=O)n(-c3ccc(C)nc3)c2n1 [Example 137]
IC50: < 100 nM

CCOc1ccc2cc(-c3ccc(OC)cc3)c(=O)n(-c3ccc(C(F)(F)F)cc3)c2n1 [Example 141]
IC50: < 100 nM

CCOc1ccc2cc(-c3ccc(OC)cc3)c(=O)n(-c3cnc(NC)nc3)c2n1 [Example 143]
IC50: < 100 nM

[2H]C([2H])([2H])Nc1ccc(-n2c(=O)c(-c3ccc4nn(C)cc4c3)cc3ccc(OCC)nc32)cn1 [Example 146]
IC50: < 100 nM

CCOc1ccc2cc(-c3ccc(OC)cc3)c(=O)n(-c3ccc(Cl)cc3)c2n1 [Example 154]
IC50: < 100 nM

CCOc1ccc2cc(-c3ccc(OC)cc3)c(=O)n(-c3ccc(OC(F)(F)F)nc3)c2n1 [Example 156]
IC50: 100 to 1000 nM

CNC(=O)c1ccc(-c2cc3cnc(NCC(F)(F)F)nc3n(-c3ccc(OC)cc3)c2=O)cc1 [Example 170, 4-(8-(4-methoxyphenyl)-7-oxo-2-(2,2,2-trifluoroethylamino)-7,8-dihydropyrido[2,3-d]pyrimidin-6-yl)-N-methylbenzamide]
IC50: 100 to 1000 nM

COc1ccc(-n2c(=O)c(-c3ccc(OC)cn3)cc3cnc(NCC(F)(F)F)nc32)cc1 [Example 175]
IC50: 100 to 1000 nM

COc1ccc(-n2c(=O)c(-c3ccc(OC)c(C)c3)cc3cnc(NCC(F)(F)F)nc32)cc1 [Example 178]
IC50: 100 to 1000 nM

COc1ccc(-n2c(=O)c(-c3ccc(S(C)(=O)=O)cc3)cc3cnc(NCC(F)(F)F)nc32)cc1 [Example 179]
IC50: 100 to 1000 nM

COc1ccc(-n2c(=O)c(-c3ccncc3)cc3cnc(NCC(F)(F)F)nc32)cc1 [Example 181]
IC50: 100 to 1000 nM

COc1ccc(-n2c(=O)c(-c3ccc4nncn4c3)cc3cnc(NCC(F)(F)F)nc32)cc1 [Example 182]
IC50: 1000 to 10000 nM

COc1ccc(-n2c(=O)c(-c3ccc(OC)c(F)c3)cc3cnc(NCC(F)(F)F)nc32)cc1 [Example 184]
IC50: 100 to 1000 nM

COc1ccc(-n2c(=O)c(-c3ccc4c(c3)C(C)(C)CO4)cc3cnc(NCC(F)(F)F)nc32)cc1 [Example 190]
IC50: < 100 nM

COc1ccc(-n2c(=O)c(-c3ccc4c(c3)OC(C)(C)O4)cc3cnc(NCC(F)(F)F)nc32)cc1 [Example 191]
IC50: 100 to 1000 nM

O=c1c(-c2ccc3nccn3c2)cc2cnc(NCC(F)(F)F)nc2n1-c1ccc(C2CC2)cc1 [Example 192]
IC50: < 100 nM

Cn1cc(-c2cc3cnc(NCC(F)(F)F)nc3n(-c3ccc(C4CC4)cc3)c2=O)ccc1=O [Example 193]
IC50: < 100 nM

CCOc1ccc2cc(-c3ccc(OC(F)F)cc3)c(=O)n(-c3ccc(OC(F)F)cc3)c2n1 [Example 198]
IC50: < 100 nM

CCOc1ccc2cc(-c3ccc(OCCN(C)C)cc3)c(=O)n(-c3ccc(OC(F)F)cc3)c2n1 [Example 206]
IC50: < 100 nM

CCOc1ccc2cc(-c3ccc4nn(CC(C)(C)C)cc4c3)c(=O)n(-c3ccc(Cl)cc3)c2n1 [Example 211]
IC50: < 100 nM

CCOc1ccc2cc(-c3ccc4nn(CC(C)(C)O)cc4c3)c(=O)n(-c3ccc(OC(F)(F)F)nc3)c2n1 [Example 212]
IC50: < 100 nM

Cn1cc(-c2cc3cnc(NCC(F)(F)F)nc3n(-c3ccc(-c4cc[nH]n4)cc3)c2=O)ccc1=O [Example 234, 8-(4-(1H-pyrazol-5-yl)phenyl)-6-(1-methyl-6-oxo-1,6-dihydropyridin-3-yl)-2-(2,2,2-trifluoroethylamino)pyrido[2,3-d]pyrimidin-7(8H)-one]
IC50: < 100 nM

[2H]C([2H])([2H])Oc1ccc(-c2cc3ccc(NCC(F)(F)F)nc3n(-c3ccc(OC([2H])([2H])[2H])cc3)c2=O)cc1 [Example 306]
IC50: < 100 nM

Cn1cc2cc(-c3cc4ccc(NCC(F)(F)F)nc4n(-c4ccc(C5CC5)nc4)c3=O)ccc2n1 [Example 311]
IC50: < 100 nM

CCNc1ccc2cc(-c3ccc4nn(C)cc4c3)c(=O)n(-c3ccc(N)nc3)c2n1 [Example 312]
IC50: < 100 nM

CN(C)c1ccc(-n2c(=O)c(-c3ccc4nn(C)cc4c3)cc3ccc(OCC(F)(F)F)nc32)cn1 [Example 315]
IC50: < 100 nM

COc1ccc(-n2c(=O)c(-c3ccc4nn(CCO)cc4c3)cc3ccc(OCC(F)(F)F)nc32)cc1 [Example 323]
IC50: < 100 nM

CCNc1ccc2nc(-c3ccc4nn(C)cc4c3)c(=O)n(-c3ccc(C4CC4)nc3)c2n1 [Example 336]
IC50: < 100 nM

CCNc1ccc2nc(-c3ccc4nn(C)cc4c3)c(=O)n(-c3ccc(C)nc3)c2n1 [Example 337]
IC50: < 100 nM

Cn1cc2cc(-c3nc4ccc(OCC(F)(F)F)nc4n(-c4ccc(Cl)cc4)c3=O)ccc2n1 [Example 339]
IC50: < 100 nM

CN(C)c1ccc(-n2c(=O)c(-c3ccc4nn(C)cc4c3)nc3ccc(OCC(F)(F)F)nc32)cn1 [Example 349, 4-(6-(dimethylamino)pyridin-3-yl)-2-(2-methyl-2H-indazol-5-yl)-6-(2,2,2-trifluoroethoxy)pyrido[2,3-b]pyrazin-3(4H)-one]
IC50: < 100 nM

Cn1cc2cc(-c3nc4ccc(OCC(F)(F)F)nc4n(-c4ccc(N)nc4)c3=O)ccc2n1 [Example 350, 4-(6-aminopyridin-3-yl)-2-(2-methyl-2H-indazol-5-yl)-6-(2,2,2-trifluoroethoxy)pyrido[2,3-b]pyrazin-3(4H)-one]
IC50: 100 to 1000 nM

— patent US20220251081A1, “HETEROBICYCLIC INHIBITORS OF MAT2A AND METHODS OF USE FOR TREATING CANCER” (priority 2019, published 2022)
